# In patent publication US20150141375A1 (priority 2009, published 2015):
# Like-named read-outs stand apart in the source and are kept apart here.
# Tests used:
# human PBMCs = assay: Intracellular CDV-PP in human PBMCs; type: in vitro ADME
# Protocol: CMX001 increases cellular exposure to the active antiviral agent, cidofovir-diphosphate (CDV-PP). […] CDV-PP in PBMCs incubated for 48 hours with CMX001 or cidofovir.
# [1] = SVG cell viability / cell number (MTS, alamar blue, hematoxylin); type: cell-based, human; settings: human, SVG cells; Ara-C 20 μg/ml; read-out: decrease of cell viability (MTS)
# Protocol: (§1) Quantification of cell viability using the MTS [3-(4,5-dimethylthiazol-2-yl)-5-(3-carboxymethoxyphenyl)-2-(4-sulfophenyl)-2H-tetrazolium] assay is based on bioactivity of mitochondrial dehydrogenase in living cells, which converts colorless tetrazolium salt to a colored formazan. MTS assays were performed according to manufacturer's instructions (Promega, Madison Wis.). Briefly, culture medium was removed from cells and 50 μL of PBS was added into each well of a 96 well plate. Ten μL of MTS reagent were added to wells of cells, and to a well without cells to determine background. Mixtures were incubated at 37° C. for 2 hours and the absorbance was measured at 490 nm. Trypan blue staining was performed on identical cultures to correlate MTS values with cell viability. The final values indicated are the result from 3 replicates. The value for the non-treated control was set to 100% and all other values are represented as a percentage of the control. Alamar blue (AB) assay.
# (§2) Quantification of cell viability using the alamar blue (AB) assay was performed according to the manufacturer's instructions (Invitrogen, Gaithersburg, Md.). Briefly, 10 μL of AB reagent was added to each well of a 96 well dish containing cells or without cells to determine background. Mixtures were incubated at 37° C. for 6 hours and the absorbance measured at 570 nm using 600 nm as a reference wavelength. The value for the non-treated control was set to 100% and all other values are represented as a percentage of the control.
# (§3) Because cell density in cultures processed for in situ DNA hybridization could not be measured by MTS or AB assays, cell density was approximated in cell cultures processed by quantifying hematoxylin staining intensity. Coverslips containing cells were prepared for in situ DNA hybridization and co-stained with hematoxylin. Subsequently, each coverslip was scanned and the hematoxylin intensities quantified using ImageJ. To determine the total cell number per coverslip, images were acquired at 10 random positions at 100× magnification. Cells were counted throughout each image and the average cell number per slide was generated by averaging counts from the 10 images for each experimental group. Exactly 900 images at 100× magnification cover the surface of an 18 mm×18 mm coverslip.
# SVG cells = assay: as above; type: cell-based, human; settings: Ara-C 5 μg/ml
# Protocol: as §1, §2, §3
# Mad-4 JCV = assay: JCV (Mad-4) initial infection of SVG cells (in situ DNA hybridization, qPCR); settings: for decrease in percentage of cells containing JCV DNA: day 7
# HSV-1 = assay: microbe, parasite or virus in culture; type: cell-based
# HSV-2 = assay: In vitro efficacy against HSV-2 strains in HFF (CPE, plaque reduction); type: cell-based
# Source text: In vitro screening by CPE assay in human foreskin fibroblast (HFF) cells with confirmation using plaque reduction assays in HFF.
# HSV-2, strain MS = assay: Mortality of BALB/c mice infected intranasally with HSV-2, strain MS; type: in vivo
# Protocol: Animals: BALB/c, female mice, 3-4 weeks of age.
# Treatments were administered to mice for 7 consecutive days beginning 72 hr post viral inoculation by oral gavage using a 0.2 ml volume. CMX001 was administered once daily and ACV was given twice daily at approximately 12 hr intervals.
# Mortality rates analyzed by Fisher's exact test; Mean day of death (MDD) by Mann-Whitney U rank sum.
# Adenovirus = settings: literature values; cited from earlier work
# [2] = Safety and pharmacokinetics of CMX001 in healthy volunteers; type: in vivo, human; settings: blood, Human, analyte = label
# Protocol: An initial study was conducted to evaluate the safety and pharmacokinetics of CMX001 in healthy volunteers. The study consisted of a single dose arm (SD) and a multiple dose arm (MD). In the single dose arm 7 cohorts of 6 subjects were treated (4 subjects received active drug and 2 placebo). Enrollment was staggered as 2 subjects (one active, one placebo) followed by 4 subjects (Groups A and B). The estimated single doses for the two highest doses treated for a […] subject were 40 mg (0.6 mg/kg cohort 6) and 70 mg (1 mg/kg cohort 7). In the multiple dose arm, cohort 6MD received 0.1 mg/kg on Day 0, 6 and 12; Cohort 7MD received 0.2 mg/kg on Day 0, 6 and 12. Levels of cidofovir, CMX001 and CMX064 (major metabolite) were measured in blood and urine of subjects during the course of the study. Gastrointestinal (GI) monitoring of the subjects included (a) monitoring for clinical signs of GI adverse events, (b) monitoring for clinical symptoms using a visual Analog Scale, (c) monitoring for appetite loss/anorexia, nausea, vomiting, diarrhea, constipation and intestinal gas/bloating, (d) laboratory tests for fecal occult blood; serum electrolytes, urine specific gravity, BUN/creatinine ratio; serum albumin, and lipids, and (e) diagnostic studies (the Wireless capsule endoscopy (PillCam®, Given Imaging)).
# BK Virus = assay: BK virus replication in RPTECs, viral DNA by qPCR after 5 days; type: cell-based; settings: Betapolyomavirus hominis, RPTEC
# Protocol: To test the ability of CMX001 to inhibit replication of BK virus, stocks of BK virus were prepared in HFF cells and dilutions of the virus stocks were used to infect primary human renal tubular epithelial cells (RPTECs). Drug dilutions were then added to the wells containing the infected cells and the plates were incubated for 5 days. Total DNA was prepared from the plates and viral DNA was quantified by qPCR.
# HCMV = HCMV viral DNA accumulation in HFF cells, real time PCR, 7 days; type: cell-based; settings: GCV 10 μM
# HCMV (AD169) = assay: HCMV real time array of viral transcripts; type: cell-based; settings: CDV 50 μM, GCV 15 μM, CMX001 0.5 μM; ANOVA P<0.05
# [3] = JC polyomavirus, read-out: reduction of JCV DNA containing cells, normalized to cell viability
compound,measurement,setting,value
cidofovir diphosphate [CDV-PP],t1/2 for CDV-PP,human PBMCs; PBMCs incubated 48 hours with CMX001 or cidofovir (FIG. 40),156 h
same,t1/2 for CDV-PP,human PBMCs; incubation with CMX001 for 1 hour (FIG. 42),156 h
same,t1/2 for CDV-PP,human PBMCs; incubation with CMX001 for 48 hours (FIG. 41),93.6 h
"Nc1ccn([C@@H]2O[C@H](CO)C(O)C2O)c(=O)n1 (stereo partly drawn) [Ara-C, Cytosine β-D-arabinofuranoside]",cytotoxicity at 20 μg/ml,[1],21%
same,cytotoxicity (MTS),SVG cells,did not cause cytotoxicity
same,decrease in percentage of cells containing JCV DNA,Mad-4 JCV; Ara-C 5 μg per mL,25%
same,decrease in percentage of cells containing JCV DNA,Mad-4 JCV; Ara-C 20 μg per mL,83%
same,inhibition at 5 µg/mL,Mad-4 JCV; [3],27%
same,inhibition at 20 µg/mL,Mad-4 JCV; [3],78%
"Nc1nc2c(ncn2COCCO)c(=O)[nH]1 [Acyclovir, acyclovir]",EC50,"HSV-1; Human alphaherpesvirus 1, ACV resistant strain B-2006",> 100 µM
same,EC50,"HSV-1; Human alphaherpesvirus 1, ACV resistant strain DM2.1",> 100 µM
same,EC50,"HSV-1; Human alphaherpesvirus 1, ACV resistant strain PAAr5",13.6 ± 2.7 µM
same,EC50,"HSV-1; Human alphaherpesvirus 1, F (wild type), Table 9",1.9 ± 0.47 µM
same,EC50,"HSV-1; Human alphaherpesvirus 1, SC16, ACV resistant strain SC16-S1",> 100 µM
same,EC50,"HSV-1; Human alphaherpesvirus 1, read-out: EC50 range, panel of wild-type and ACV-resistant isolates of HSV-1 and HSV-2",≥ 2 µM
same,EC50,"HSV-1; Human alphaherpesvirus 1, strain F",0.35 ± 0.2 µM
same,EC50,"HSV-1; Human alphaherpesvirus 1, strain HL-3",3.8 ± 0.4 µM
same,EC50,"HSV-2; Human alphaherpesvirus 2, ACV resistant strain 11572",> 100 µM
same,EC50,"HSV-2; Human alphaherpesvirus 2, ACV resistant strain 11680",79 ± 10 µM
same,EC50,"HSV-2; Human alphaherpesvirus 2, ACV resistant strain 12247",> 100 µM
same,EC50,"HSV-2; Human alphaherpesvirus 2, ACV resistant strain AG-3",> 100 µM
same,EC50,"HSV-2; Human alphaherpesvirus 2, G (wild type), Table 9",2.1 ± 0.99 µM
same,EC50,"HSV-2; Human alphaherpesvirus 2, strain G",3.1 ± 3.5 µM
same,EC50,"HSV-2; Human alphaherpesvirus 2, strain MS",2.2 ± 0.8 µM
same,MDD,"HSV-2, strain MS; Acyclovir 3 mg/kg",9.0 ± 1.6
same,Mortality Number,"HSV-2, strain MS; Acyclovir 3 mg/kg",15/15
same,Mortality Percent,"HSV-2, strain MS; Acyclovir 3 mg/kg",100%
same,MDD,"HSV-2, strain MS; Acyclovir 10 mg/kg",11.1 ± 2.4
same,Mortality Number,"HSV-2, strain MS; Acyclovir 10 mg/kg",11/15
same,Mortality Percent,"HSV-2, strain MS; Acyclovir 10 mg/kg",79%
same,MDD,"HSV-2, strain MS; Acyclovir 30 mg/kg",10.7 ± 2.0
same,Mortality Number,"HSV-2, strain MS; Acyclovir 30 mg/kg",6/15
same,Mortality Percent,"HSV-2, strain MS; Acyclovir 30 mg/kg",40%
same,IC50,Adenovirus,> 100 µM
Nc1ccn(C[C@@H](CO)OCP(=O)(O)OCCCOCCCC(=O)O)c(=O)n1 [CMX064],AUC,"[2]; 0.05 mg/kg, CMX001 0.050 mg/kg",39 ng·h/mL
same,Cmax,"[2]; 0.05 mg/kg, CMX001 0.050 mg/kg",4.63 ng/mL
same,AUC,"[2]; 0.1 mg/kg, CMX001 0.100 mg/kg",34 ng·h/mL
same,Cmax,"[2]; 0.1 mg/kg, CMX001 0.100 mg/kg",2.85 ng/mL
same,AUC,"[2]; 0.2 mg/kg, CMX001 0.200 mg/kg",39.7 ng·h/mL
same,Cmax,"[2]; 0.2 mg/kg, CMX001 0.200 mg/kg",4.55 ng/mL
same,AUC,"[2]; 0.4 mg/kg, CMX001 0.400 mg/kg",203 ng·h/mL
same,Cmax,"[2]; 0.4 mg/kg, CMX001 0.400 mg/kg",23 ng/mL
same,AUC,"[2]; 0.6 mg/kg, CMX001 0.600 mg/kg",187 ng·h/mL
same,Cmax,"[2]; 0.6 mg/kg, CMX001 0.600 mg/kg",24.9 ng/mL
same,AUC,[2]; CMX001 0.025 mg/kg,11.8 ng·h/mL
same,Cmax,[2]; CMX001 0.025 mg/kg,1.69 ng/mL
"Nc1nc(O)c2ncn(COC(CO)CO)c2n1 [ganciclovir, reference compound]",EC50,BK Virus; Virus Dilution 1:10,89 µM
same,EC50,BK Virus; Virus Dilution 1:50,> 100 µM
same,EC50,BK Virus; Virus Dilution 1:100,70.8 µM
same,fold reduction of accumulation of viral DNA,HCMV,less than 10 fold
same,levels of viral transcripts,HCMV (AD169),Significant reductions in levels of most viral transcripts
same,IC50,Adenovirus,4.5 to 33 µM
